Patent US12448388B2, “PRMT5 inhibitors and uses thereof” (Gilead Sciences, Inc., priority 2023, dated 2025)
Read-outs that look alike come from different tables or passages of the source.

Tests used:
[1] = test system: HCT116 MTAP-deleted cell lines; test: Cell viability assay (CellTiter-Glo, 7 days), HCT116 MTAP-deleted; assay type: cell-based; settings: Homo sapiens, HCT-116, HCT116 MTAP-deleted, class symbols, read-out: CC50
Procedure, shortened: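 Luminescent ATP readout (CellTiter-Glo) after 7 days of continuous compound exposure gives the CC50 value. Cells were plated onto pre-dispensed DMSO dilution series of the PRMT5 inhibitors and kept at 37 °C in 5% CO2.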

[2] = test system: Symmetric Di-methyl Arginine (SDMA) signal (PRMT5 inhibition) in HCT116 MTAP-deleted cells; test: Symmetric di-methyl arginine image-based high content screen assay (SDMA assay), HCT116 MTAP-deleted; assay type: cell-based; settings: for EC50: Homo sapiens, HCT-116, HCT116 MTAP-deleted, class symbols
Protocol: Symmetric di-methyl arginine image-based high content screen assay (SDMA assay) was performed in HCT116 WT and HCT116 MTAP-deleted cell lines to measure Symmetric Di-methyl Arginine (SDMA) signal reduction after selective PRMT5 inhibition in the MTAP-deleted cells. Control compounds were analyzed in parallel each time for quality control.
Briefly, the same compound plates were generated as mentioned in the previous section of Cell viability assay on Day −1. On Day 0, 800 HCT WT or HCT116 MTAP-deleted cell were seeded in compound-containing 384 well plates (50 μl per well) in RPMI 1640 media supplemented with 10% heat inactivated fetal bovine serum, Glutamax and penicillin streptomycin using EL460 liquid dispenser 5 μl cassette (BioTek, part no. 7170011). After equilibrating the plate at room temperature, the cells were incubated for 3 days inside the sealed incubator set at 37° C. with 90% humidity and 5% C02.
On Day 3, the cells were fixed by adding 45 μl of 8% neutralized formalin solution to each well using EL460 liquid dispenser 5 μl cassette and the cells were incubated for 30 minutes at room temperature. The formalin solution was washed off with […] phosphate buffered saline (dPBS), the 0.1% Triton X-100 solution in dPBS was used to permeabilize the cells for 15 minutes at room temperature. The triton solution was aspirated, 50 μl of Odyssey Blocking buffer +0.05% Tween20 was added and the plate was incubated at room temperature for 30 minutes.
The blocking solution was removed, a 20 μl of SDMA antibody (Cell Signaling Technology, Cat no. 13222) diluted 1:500 in Odyssey Blocking buffer +0.05% Tween20 was added and the plate was incubated at 4° C. overnight. Next day, the primary SDME antibody solution was washed from each well three times with 0.05% Tween20 in dPBS (PBST).
A 30 μl of the secondary antibody, a Goat anti-Rabbit Alexa Fluor Plus 488 (Invitrogen, Cat no. PIA32731) was diluted 1:500 in Odyssey Blocking buffer +0.05% Tween20 and the plate was incubated for 1.5 hours in dark at room temperature. The secondary antibody solution was removed, 30 μl of 5 mg/ml DAPI solution diluted 1:2000 in dPBS was added and the plate was incubated for 30 minutes in dark at room temperature. The DAPI solution was aspirated and the wells were washed six times with dPBS.
The SDMA signal and DAPI signal per cell were counted using a Cellomics CX7 LZR instrument reading under 488 and 405 nm laser, respectively. The SDMA signal was quantified by mean average intensity per cell from Alexa Fluor Plus 488 after the cell was defined with DAPI. The EC50 values for each compound after 3 days of treatment were calculated using 4 parameter non-linear logistical curve fit.
For the SDMA assay i.e. EC50 shown in Table 3A: A: EC50≤1 nM, B: 1 nM<EC50≤5 nM, C: EC50>5 nM.

[3] = HCT116 WT versus HCT116 MTAP-deleted
[4] = HCT116 WT vs HCT116 MTAP-deleted

Row | Structure (SMILES) | CC50 ([1]; cell viability) | EC50 selectivity [2, 3] | EC50 [2] | CC50 ([1]; cell viability assay) | EC50 selectivity [2, 4]
1 | Cc1ncc2c(N)nc3ccc(C(=O)N(C)[C@@H]4COc5cc(C#CC6(O)CC6)ccc54)cc3n12 [Ff-19, (S)-4-amino-N-(6-((1-hydroxycyclopropyl)ethynyl)-2,3-dihydrobenzofuran-3-yl)-N,1-dimethylimidazo[1,5-a]quinoxaline-8-carboxamide] | 100 to 1000 nM | 129 | > 5 nM |  | 
2 | Nc1nc2ccc(C(=O)N(Cc3ccc(C(F)(F)F)cc3F)C3COC3)cc2n2cncc12 [Ff-410, 4-amino-N-[[2-fluoro-4-(trifluoromethyl)phenyl]methyl]-N-(oxetan-3-yl)imidazo[1,5-a]quinoxaline-8-carboxamide] |  |  | > 5 nM | 100 to 1000 nM | 453
3 | CCN(C(=O)c1ccc2nc(N)c3cncn3c2c1)[C@@H]1COc2cc(C(F)(F)F)ccc21 [Ff-8, (S)-4-amino-N-ethyl-N-(6-(trifluoromethyl)-2,3-dihydrobenzofuran-3-yl)imidazo[1,5-a]quinoxaline-8-carboxamide] | < 100 nM | 299 | ≤ 1 nM |  | 
4 | Cc1ncn2c1c(N)nc1cc(F)c(C(=O)N3CCC[C@@H]4Oc5cc(C(F)(F)C(F)(F)F)ncc5[C@@H]43)cc12 [Fg-41, (4-amino-7-fluoro-3-methylimidazo[1,5-a]quinoxalin-8-yl)((4aS,9bS)-7-(perfluoroethyl)-3,4,4a,9b-tetrahydrofuro[3,2-b:4,5-c′]dipyridin-1(2H)-yl)methanone] |  |  | 1 to 5 nM | < 100 nM | 42
5 | Cc1ncn2c1c(N)nc1ccc(C(=O)N(Cc3ccc(C(F)(F)F)cc3F)N(C)C(=O)C3CC3)cc12 [Fa-4, 4-amino-N′-(cyclopropanecarbonyl)-N-(2-fluoro-4-(trifluoromethyl)benzyl)-N′,3-dimethylimidazo[1,5-a]quinoxaline-8-carbohydrazide] | < 100 nM | 74 | 1 to 5 nM |  | 
6 | CC(=O)N(C)N(Cc1nc2cc(Cl)ccc2s1)C(=O)c1ccc2nc(N)c3cnc(C)n3c2c1 [Fb-6, N′-acetyl-4-amino-N-((5-chlorobenzo[d]thiazol-2-yl)methyl)-N′,1-dimethylimidazo[1,5-a]quinoxaline-8-carbohydrazide] | 100 to 1000 nM | 390 | > 5 nM |  | 
7 | CN(Cc1ccc(-c2cnn(C(F)(F)F)c2)cc1F)C(=O)c1cc2c(cc1F)nc(N)c1cncn12 [Ff-24, 4-amino-7-fluoro-N-(2-fluoro-4-(1-(trifluoromethyl)-1H-pyrazol-4-yl)benzyl)-N-methylimidazo[1,5-a]quinoxaline-8-carboxamide] | 100 to 1000 nM | 1985 | 1 to 5 nM |  | 
8 | CC(C)N(Cc1ccc(C(F)(F)F)cc1F)C(=O)c1ccc2nc(N)c3cncn3c2c1 [Ff-412, 4-amino-N-[[2-fluoro-4-(trifluoromethyl)phenyl]methyl]-N-isopropyl-imidazo[1,5-a]quinoxaline-8-carboxamide] |  |  | ≤ 1 nM | < 100 nM | 252
9 | Nc1nc2cc(F)c(C(=O)N3CCC[C@@H]4Oc5cc(-c6cnn(C(F)F)c6)ccc5[C@@H]43)cc2n2cncc12 [Ff-661, (4-amino-7-fluoroimidazo[1,5-a]quinoxalin-8-yl)((4aS,9bS)-7-(1-(difluoromethyl)-1H-pyrazol-4-yl)-3,4,4a,9b-tetrahydrobenzofuro[3,2-b]pyridin-1(2H)-yl)methanone] |  |  | ≤ 1 nM | < 100 nM | 147
10 | Nc1nc2cc(F)c(C(=O)N3CCOCC3c3ccc(C(F)(F)F)cn3)cc2n2cncc12 (stereo not shown) [Ff-128, (4-amino-7-fluoroimidazo[1,5-a]quinoxalin-8-yl)(3-(5-(trifluoromethyl)pyridin-2-yl)morpholino)methanone] | < 100 nM |  |  |  | 
11 | Nc1nc2cc(F)c(C(=O)N3CC4CC4(c4ccc(C(F)(F)F)cc4)C3)cc2n2cncc12 (stereo not shown) [Ff-3, (4-amino-7-fluoroimidazo[1,5-a]quinoxalin-8-yl)(1-(4-(trifluoromethyl)phenyl)-3-azabicyclo[3.1.0]hexan-3-yl)methanone] | > 1000 nM |  |  |  | 
12 | Nc1nc2cc(F)c(C(=O)N3CCC[C@@H]4Oc5cc(-c6cnn(C(F)(F)F)c6)ccc5[C@@H]43)cc2n2cncc12 [Ff-655, (4-amino-7-fluoroimidazo[1,5-a]quinoxalin-8-yl)((4aS,9bS)-7-(1-(trifluoromethyl)-1H-pyrazol-4-yl)-3,4,4a,9b-tetrahydrobenzofuro[3,2-b]pyridin-1(2H)-yl)methanone] |  |  |  | < 100 nM | 
13 | [2H]C([2H])([2H])[C@H]1CN(C(=O)c2cc3c(cc2F)nc(N)c2cncn23)[C@H]2c3ccc(C(F)(F)F)cc3C[C@H]2O1 (single isomer, unassigned) [Ff-639] |  |  |  | < 100 nM | 
14 | Nc1nc2ccc(C(=O)N3CCO[C@@H]4Cc5cc(C(F)(F)F)ccc5[C@@H]43)cc2n2cncc12 (racemic) [Ff-33, Racemic (4-aminoimidazo[1,5-a]quinoxalin-8-yl)((4aS,9aR)-7-(trifluoromethyl)-2,3,9,9a-tetrahydroindeno[2,1-b][1,4]oxazin-4(4aH)-yl)methanone] | 100 to 1000 nM |  |  |  | 
15 | Nc1nc2cc(F)c(C(=O)N3CCO[C@@H]4Cc5c(ccc(Br)c5F)[C@@H]43)cc2n2cncc12 [Ff-159, (4-amino-7-fluoroimidazo[1,5-a]quinoxalin-8-yl)((4aS,9aR)-7-bromo-8-fluoro-2,3,9,9a-tetrahydroindeno[2,1-b][1,4]oxazin-4(4aH)-yl)methanone] | < 100 nM |  |  |  | 
16 | C[C@@H]1C[C@@H]2Oc3c(ccc(C(F)(F)F)c3F)[C@@H]2N(C(=O)c2cc3c(cn2)nc(N)c2cncn23)C1 [Ff-348, (4-aminoimidazo[1,5-a]pyrido[3,4-e]pyrazin-8-yl)((3R,4aS,9bS)-6-fluoro-3-methyl-7-(trifluoromethyl)-3,4,4a,9b-tetrahydrobenzofuro[3,2-b]pyridin-1(2H)-yl)methanone] | < 100 nM |  |  |  | 
17 | Nc1nc2cc(F)c(C(=O)N3CCOC[C@@H]3c3ccc(C(F)(F)F)cn3)cc2n2cncc12 (single isomer, unassigned) [Ff-547] |  |  |  | < 100 nM | 
18 | Cc1ncn2c1c(N)nc1cc(F)c(C(=O)N(Cc3ccc(C(F)(F)F)cn3)C3(C)CC3)cc12 [Ff-590, 4-amino-7-fluoro-3-methyl-N-(1-methylcyclopropyl)-N-((5-(trifluoromethyl)pyridin-2-yl)methyl)imidazo[1,5-a]quinoxaline-8-carboxamide] |  |  |  | < 100 nM | 
19 | Nc1nc2cc(F)c(C(=O)N3CC[C@@H]4Oc5cc(C(F)(F)F)ccc5[C@@H]43)cc2n2cncc12 [Ff-66, (4-amino-7-fluoroimidazo[1,5-a]quinoxalin-8-yl)((3aS,8bS)-6-(trifluoromethyl)-2,3,3a,8b-tetrahydro-1H-benzofuro[3,2-b]pyrrol-1-yl)methanone] | 100 to 1000 nM |  |  |  | 
20 | Nc1nc2cnc(C(=O)N3CCO[C@@H]4Cc5cc(C(F)(F)F)cc(F)c5[C@@H]43)cc2n2cncc12 [Ff-540, (4-aminoimidazo[1,5-a]pyrido[3,4-e]pyrazin-8-yl)((4aS,9aR)-5-fluoro-7-(trifluoromethyl)-2,3,9,9a-tetrahydroindeno[2,1-b][1,4]oxazin-4(4aH)-yl)methanone] |  |  |  | 100 to 1000 nM | 
21 | Nc1nc2cc(F)c(C(=O)N3CCO[C@@H]4Cc5cc(-c6ccc(C(F)(F)F)nc6)ccc5[C@@H]43)cc2n2cncc12 [Ff-239, (4-amino-7-fluoroimidazo[1,5-a]quinoxalin-8-yl)((4aS,9aR)-7-(6-(trifluoromethyl)pyridin-3-yl)-2,3,9,9a-tetrahydroindeno[2,1-b][1,4]oxazin-4(4aH)-yl)methanone] | < 100 nM |  |  |  | 
22 | [2H]C([2H])([2H])c1ncn2c1c(N)nc1cc(F)c(C(=O)N(C)[C@@H]3COc4cc(C(F)(F)F)ccc43)cc12 [Ff-497, (S)-4-amino-7-fluoro-N-methyl-3-(methyl-d3)-N-(6-(trifluoromethyl)-2,3-dihydrobenzofuran-3-yl)imidazo[1,5-a]quinoxaline-8-carboxamide] |  |  |  | < 100 nM | 
